Measured values as given in ChEMBL document CHEMBL6127107, “Oleanolic acid derivatives against drug-resistant bacteria and fungi by multi-targets to avoid drug resistance” (Eur J Med Chem, 2024).
In brackets after ≈: the same amount, converted by molar mass.

How the values were obtained:
Staphylococcus aureus [1] = experiment: Antimicrobial activity against methicillin-resistant Staphylococcus aureus 003; type: functional
Enterococcus faecalis = experiment: Antimicrobial activity against vancomycin resistant Enterococcus faecalis ATCC 51299; type: functional
Staphylococcus aureus [2] = experiment: Antimicrobial activity against methicillin-resistant Staphylococcus aureus 011; type: functional
Staphylococcus aureus [3] = experiment: Antimicrobial activity against Staphylococcus aureus 29; type: functional
Staphylococcus aureus [4] = experiment: Antimicrobial activity against Staphylococcus aureus 31; type: functional
Staphylococcus aureus [5] = experiment: Antimicrobial activity against Staphylococcus aureus 10; type: functional
Candida albicans = experiment: Antimicrobial activity against fluconazole-resistant Candida albicans; type: functional
[6] = Hemolytic activity against Mianyang red blood cells (unknown origin); type: toxicity, cell-based, RBC
[7] = Selectivity index, ratio of HC50 for hemolytic activity against Mianyang red blood cells (unknown origin) to MIC for antimicrobial activity against methicillin resistant Staphylococcus aureus 003; type: toxicity, cell-based, RBC; settings: read-out: Selectivity Index
Pseudomonas aeruginosa = experiment: Antimicrobial activity against Pseudomonas aeruginosa; type: functional
Escherichia coli = experiment: Antimicrobial activity against Escherichia coli; type: functional

SMILES | MIC (Staphylococcus aureus [1]) | MIC (Enterococcus faecalis) | MIC (Staphylococcus aureus [2]) | MIC (Staphylococcus aureus [3]) | MIC (Staphylococcus aureus [4]) | MIC (Staphylococcus aureus [5]) | MIC (Candida albicans) | HC50 [6] | selectivity ratio [7] | MIC (Pseudomonas aeruginosa) | MIC (Escherichia coli)
CC(=O)O[C@H]1CC[C@]2(C)[C@H]3CC=C4[C@@H]5CC(C)(C)CC[C@]5(C(=O)NCCCCN)CC[C@@]4(C)[C@]3(C)CC[C@H]2C1(C)C | 4 µg/mL (≈ 7.03 µM) | 4 µg/mL (≈ 7.03 µM) | 2 µg/mL (≈ 3.52 µM) | 8 µg/mL (≈ 14.1 µM) | 8 µg/mL (≈ 14.1 µM) | 8 µg/mL (≈ 14.1 µM) | 4 µg/mL (≈ 7.03 µM) | 65.8 µg/mL | 16.5 | > 64 µg/mL | > 64 µg/mL
CC1(C)CC[C@]2(C(=O)O)CC[C@]3(C)C(=CC[C@@H]4[C@@]5(C)CC[C@H](OCC(O)CCCCNC(=N)N)C(C)(C)[C@@H]5CC[C@]43C)[C@@H]2C1 (stereo partly drawn) | 2 µg/mL (≈ 3.26 µM) | 4 µg/mL (≈ 6.52 µM) | 2 µg/mL (≈ 3.26 µM) | 8 µg/mL (≈ 13 µM) | 8 µg/mL (≈ 13 µM) | 8 µg/mL (≈ 13 µM) | 4 µg/mL (≈ 6.52 µM) | 660 µg/mL | 330 | > 64 µg/mL | > 64 µg/mL
CC1(C)CC[C@]2(C(=O)O)CC[C@]3(C)C(=CC[C@@H]4[C@@]5(C)CC[C@H](OC(=O)c6ccccc6C(=O)O)C(C)(C)[C@@H]5CC[C@]43C)[C@@H]2C1 | 32 µg/mL (≈ 52.9 µM) | 16 µg/mL (≈ 26.5 µM) | 32 µg/mL (≈ 52.9 µM) | 32 µg/mL (≈ 52.9 µM) | 64 µg/mL (≈ 106 µM) | 16 µg/mL (≈ 26.5 µM) | 8 µg/mL (≈ 13.2 µM) | > 1020 µg/mL | > 32 | > 64 µg/mL | > 64 µg/mL
CC1(C)CC[C@]2(C(=O)O)CC[C@]3(C)C(=CC[C@@H]4[C@@]5(C)CC[C@H](OCC(O)CCCCCCCCN)C(C)(C)[C@@H]5CC[C@]43C)[C@@H]2C1 (stereo partly drawn) | 8 µg/mL (≈ 12.7 µM) | 16 µg/mL (≈ 25.5 µM) | 8 µg/mL (≈ 12.7 µM) | 8 µg/mL (≈ 12.7 µM) | 32 µg/mL (≈ 51 µM) | 8 µg/mL (≈ 12.7 µM) | 32 µg/mL (≈ 51 µM) | 25.2 µg/mL | 3.15 | > 64 µg/mL | > 64 µg/mL
CCC(=O)O[C@H]1CC[C@]2(C)[C@H]3CC=C4[C@@H]5CC(C)(C)CC[C@]5(C(=O)O)CC[C@@]4(C)[C@]3(C)CC[C@H]2C1(C)C | > 64 µg/mL | > 64 µg/mL | > 64 µg/mL | > 64 µg/mL | > 64 µg/mL | > 64 µg/mL | > 64 µg/mL | – | – | > 64 µg/mL | > 64 µg/mL
CC1(C)CC[C@]2(C(=O)O)CC[C@]3(C)C(=CC[C@@H]4[C@@]5(C)CC[C@H](OCC(O)CNCc6ccoc6)C(C)(C)[C@@H]5CC[C@]43C)[C@@H]2C1 (stereo partly drawn) | > 64 µg/mL | > 64 µg/mL | > 64 µg/mL | > 64 µg/mL | > 64 µg/mL | > 64 µg/mL | > 64 µg/mL | – | – | > 64 µg/mL | > 64 µg/mL
CC(=O)O[C@H]1CC[C@]2(C)[C@H]3CC=C4[C@@H]5CC(C)(C)CC[C@]5(C(=O)N(C)C)CC[C@@]4(C)[C@]3(C)CC[C@H]2C1(C)C | > 64 µg/mL | > 64 µg/mL | > 64 µg/mL | > 64 µg/mL | > 64 µg/mL | > 64 µg/mL | > 64 µg/mL | – | – | > 64 µg/mL | > 64 µg/mL
CCCCCCCCC(=O)O[C@H]1CC[C@]2(C)[C@H]3CC=C4[C@@H]5CC(C)(C)CC[C@]5(C(=O)O)CC[C@@]4(C)[C@]3(C)CC[C@H]2C1(C)C | > 64 µg/mL | > 64 µg/mL | > 64 µg/mL | > 64 µg/mL | > 64 µg/mL | > 64 µg/mL | > 64 µg/mL | – | – | > 64 µg/mL | > 64 µg/mL
CCNCC(O)CO[C@H]1CC[C@]2(C)[C@H]3CC=C4[C@@H]5CC(C)(C)CC[C@]5(C(=O)O)CC[C@@]4(C)[C@]3(C)CC[C@H]2C1(C)C (stereo partly drawn) | > 64 µg/mL | > 64 µg/mL | > 64 µg/mL | > 64 µg/mL | > 64 µg/mL | > 64 µg/mL | > 64 µg/mL | – | – | > 64 µg/mL | > 64 µg/mL
CCCCCCCCCCCCCOC(=O)[C@]12CCC(C)(C)C[C@H]1C1=CC[C@@H]3[C@@]4(C)CC[C@H](O)C(C)(C)[C@@H]4CC[C@@]3(C)[C@]1(C)CC2 | > 64 µg/mL | > 64 µg/mL | > 64 µg/mL | > 64 µg/mL | > 64 µg/mL | > 64 µg/mL | > 64 µg/mL | – | – | > 64 µg/mL | > 64 µg/mL
CC(=O)O[C@H]1CC[C@]2(C)[C@H]3CC=C4[C@@H]5CC(C)(C)CC[C@]5(C(=O)NCCc5ccccc5)CC[C@@]4(C)[C@]3(C)CC[C@H]2C1(C)C | > 64 µg/mL | > 64 µg/mL | > 64 µg/mL | > 64 µg/mL | > 64 µg/mL | > 64 µg/mL | > 64 µg/mL | – | – | > 64 µg/mL | > 64 µg/mL
CC(=O)O[C@H]1CC[C@]2(C)[C@H]3CC=C4[C@@H]5CC(C)(C)CC[C@]5(C(=O)NCCCCCCCCNC(=N)N)CC[C@@]4(C)[C@]3(C)CC[C@H]2C1(C)C | 4 µg/mL (≈ 6 µM) | 8 µg/mL (≈ 12 µM) | 2 µg/mL (≈ 3 µM) | 4 µg/mL (≈ 6 µM) | 16 µg/mL (≈ 24 µM) | 4 µg/mL (≈ 6 µM) | 16 µg/mL (≈ 24 µM) | 232 µg/mL | 57.9 | > 64 µg/mL | > 64 µg/mL
